Solubility data for 1 compound are collected here from patent EP0335545B2, “Pharmaceutical formulations for parenteral use” (UNIVERSITY OF FLORIDA, priority 1988, dated 1989).

Values after ≈ are worked out from the molar mass of the structure shown.

One data set in a line: physchem. Conditions: 50% w/w aqueous hpcd. How it is done:
An excess of E2-CDS was sonicated with an aqueous solution of the appropriate solubilizing agent for 30 minutes. The suspension was then centrifuged, filtered through 0.45 µm polyvinylidene difluoride (Millex-HV4, Millipore®) membranes and analyzed by HPLC. […] An estimation of the bulk equilibrium constant was obtained by correlating the millimolarity of E2-CDS solubilized and the millimolarity of the cyclodextrin added. This latter value was calculated using the average molecular weight of the isomeric mixture determined by mass spectroscopy. The solubilizing effect of a 50% w/w solution of HPCD was also examined for a series of steroids and dihydropyridines (CDS). These studies were carried out in a similar manner to those previously described.
For the CDS, the wavelength monitored was 360 nm while for estrogen 220 nm was used.
Separation was achieved on an Analytical Sciences, Inc. (ASI) 10 µm particle size, C18 reversed phase 30 cm x 3.9 mm i.d. analytical column. The flow rate was 1 mL/min, the compounds were detected at 360 nm and in all determinations the temperature was ambient. […] For the GABA-CDS1, a mobile phase consisting of 50:1:1:48 of the same components was required. […] Other compounds were assayed spectrophotometrically.

A short description of data set [1]: Maximum concentrations of selected CDS in varying concentrations of selected cyclodextrins. The format is physicochemical. How it is done: In further testing, maximum concentrations of selected CDS in varying concentrations of selected cyclodextrins were determined. The concentration of E2-CDS (mg/mL) was as follows: […]

As for `CN1C=CCC(C(=O)O[C@H]2CC[C@H]3[C@@H]4CCc5cc(O)ccc5[C@H]4CC[C@]23C)=C1` [Example E2-CDS, 3-Hydroxy-17β-[(1-methyl-1,4-dihydropyridin-3-yl)carbonyl]oxyestra-1,3,5(10)-triene], the solubility was 22000 µg/mL (≈ 55.9 mM) in the data set “physchem”; 3090 µg/mL (≈ 7.85 mM) in data set [1] (20% hebcd); 6730 µg/mL (≈ 17.1 mM) in data set [1] (20% hpcd); 6070 µg/mL (≈ 15.4 mM) in data set [1] (40% hebcd); 11900 µg/mL (≈ 30.2 mM) in data set [1] (40% hpcd); 4000 µg/mL (≈ 10.2 mM) in data set [1] (40% hpgcd).

The solubility is the dissolved amount per volume that the medium holds. The low end stands for a poorly soluble substance, the high end for a readily soluble substance.
